In data set [1] the test system is wild type HEK 293 cells. In words: ATP/BzATP induced apoptosis in wild type control cells. It counts as cell-based, human. The following applies: wild type cells without P2X7. Here is the method: (§1) Apoptosis—HEK-293 P2X7 (human) cells are treated with ATP and/or BzATP to induce apoptosis (Wen et al., 2003). The level of apoptosis is determined using a Cell Death Detection ELISA, which is based on DNA laddering. Various doses of P5P are added to the cells to determine its ability to inhibit ATP induced apoptosis. OxATP (Murgia et al., 1993), PPADS (Chessell I P et al., 1998) and/or KN-62 (Humphreys B D et al., 1998) are used as positive controls.
Control—All the experiments are carried out in wild type HEK 293 cells as a control.

Data set [2] relates to HEK 293 P2X7 cells. As to the kind of experiment: ATP/BzATP induced apoptosis, Cell Death Detection ELISA. The conditions noted are these: for induction of cell apoptosis: P2X7 expressing cells. It counts as cell-based, human. Here is the method: Cell Lines—HEK 293 cell line (human), is stabily transfected with the P2X7 receptor [9] to produce HEK 293 P2X7 cells.
as §1

Data set [3] relates to LPS primed THP-1 cells. As to the kind of experiment: ATP induced IL-1β secretion, ELISA. The conditions noted are these: for inhibition of IL-1β secretion: LPS primed THP-1 cells treated with ATP. The format is cell-based. Here is the method:
LPS primed THP-1 cells are treated with ATP to induced IL-1β secretion (Grahames C B A et-al (1999) Br J Pharm 127:1915-1921). IL-1β secretion levels are determined by ELISA. Various doses of P5P are added to the cells to determine its ability to Inhibit the ATP induced IL-1β secretion. OxATP (Grahames et al., 1999), PPADS (Grahames et al., 1999), and/or KN-62 (Grahames et al., 1999) are used as positive controls.
(ELISA stands for enzyme-linked immunosorbent assay.)

Data set [4] has as its system isolated perfused rat hearts. The following applies: previous finding of the inventors (refs 89, 90); cited from earlier work.
Data set [5] in a line: Rabbit aortic balloon-injury model. The following applies: 10 mg/kg daily by gavage. The format is in vivo. The method, then:
Rabbit Aortic Balloon-Injury Model—Forty male New Zealand White rabbits (2.5-3.0 kg) are used. Rabbits are fed regular rabbit chow (control, 20 rabbits) or a 1% cholesterol diet (treated, 20 rabbits) for 8 weeks. Half of each group receives 10 mg/kg P5P (provided by CanAm Bioresearch Inc.) daily by gavage, with the other half receiving saline by gavage. After 4 weeks, a 3F Fogarty embolectomy catheter (Baxter) is inserted into the right femoral artery of each rabbit, advanced 25 cm proximally, and then withdrawn to the origin with the balloon inflated to 0.2 mL saline, a step repeated twice (Lau et al., Probucol promotes functional reendothelialization in balloon-injured rabbit aortas. Circulation 2003; 107(15):2031-6). At 8 weeks, the right and left femoral arteries are harvested from each animal (left femoral arteries serve as uninjured controls). Segments for histology are pressure-perfused with formalin, stored in. 70% (vol/vol) ethanol, and then embedded in paraffin.
Histology—One 5 μm thick cross-section is taken from each of 6 segments of the femoral aorta and stained with hematoxylin and eosin. Morphometric analysis of the 6 arterial cross-sections per animal is performed using Imagespace software (Molecular Dynamics). The intimal and medial areas of each arterial cross-section specimen is measured, and the average intimal/medial area ratio is determined for each group.
Inflammatory Markers, Lipid Profile, and Homocysteine Levels—At the beginning and end of the study, and every 2 weeks throughout, blood samples are collected through a catheter inserted in the ear artery of conscious rabbits. Plasma interleukin-6 (IL-6) levels are measured with quantitative sandwich enzyme immunoassay employing commercial kits for rats (R&D Systems) (Oubina et al., Synergistic effect of angiotensin-converting enzyme (ACE) and 3-hydroxy-3-methylglutaryl-CoA (HMG-CoA) reductase inhibition on inflammatory markers in atherosclerotic rabbits. Clin Sci (Lond). 2003; 105(6):655-62). CRP plasma levels are measured with an immunoassay kit for rabbits (Alpco Diagnostics). Plasma cholesterol levels are measured using colorimetric reactions employing commercial kits (Roche Diagnostics). Homocysteine levels are determined by high performance liquid chromatography, as previously described (Zhloba and Blashko, Liquid chromatographic determination of total homocysteine in blood plasma with photometric detection. J Chromatogr B Analyt Technol Biomed Life Sci. 2004; 800(1-2):275-80).
Evaluation of Endothelial Function by Ultrasound—Ultrasound evaluation of endothelial function of the femoral aorta is performed at the beginning and end of the study, and every 2 weeks throughout (Drolet et al., Early endothelial dysfunction in cholesterol-fed rabbits: a non-invasive in vivo ultrasound study. Cardiovasc Ultrasound. 2004; 2(1):10). Rabbits are sedated using midazolam (0.5 mg/kg), butorphanol (0.5 mg/kg) and ketamine (30 mg/kg) IM. Marginal ear vein and artery are cannulated for drug infusions and arterial blood pressure monitoring, respectively. Heart rate is monitored continuously throughout the procedure. […]
Once the imaging of the aorta is optimal, the animals receive the following drug perfusions I.V. sequentially for 2 minutes each: 1) saline at 1 ml/min; 2) acetylcholine (Ach) at 0.05 μg/ml/min and Ach at 0.5 μg/ml/min. […] Images of the femoral aorta are recorded continuously through the entire procedure on standard S-VHS videotape for off-line analysis. […]

Data set [6] relates to human platelet. The following applies: cited from earlier work.
Data set [7] in a line: Double-blind placebo-controlled trial in PCI (angioplasty) patients. It counts as in vivo, human. The method, then:
Study Design and Population—The study is a multicenter, double-blind, placebo-controlled, randomized trial. The protocol is approved by institutional review boards prior to commencement. Patients referred for elective percutaneous coronary interventional (PCI) are evaluated 14 days before their scheduled procedures. Eligible patients are asked to provide written informed consent and undergo medical history, physical examination, electrocardiography, hematology, and clinical biochemistry. Patients are eligible if they are scheduled to undergo PCI with or without stenting on one native coronary artery and have one de novo target lesion with luminal narrowing 50%. Subjects who have severe liver disease or serum creatinine 200 μmol/L; myocardial infarction within the past 7 days; left main stenosis >50%; ejection fraction <30%; have had PCI for another lesion in the preceding 6 months; are being treated for a restenotic lesion; or have scheduled atherectomy, brachytherapy, or PCI of a bypass graft before randomization are excluded. A total of 120 patients are enrolled, with 60 randomized to receive P5P and 60 to receive placebo.
The primary endpoint is clinical restenosis requiring target lesion revascularization at six months. The secondary end points are major adverse cardiac events (MACE) including death, myocardial infarction and revascularization.
Randomization and Drug Regimen—Patients are randomly assigned to receive P5P (provided by CanAm Bioresearch Inc.) 750 mg once day or placebo beginning 14 days before scheduled PCI. P5P or matched placebo is administered as 3 tablets given once daily. All patients will also receive an extra dose of P5P or matched placebos on the evening before PCI, according to random treatment assignment. After PCI, all patients are maintained on their assigned study regimen for 4 additional weeks.
PCI and Follow-Up Evaluation—PCI with or without stent placement and post-PCI management will be performed according to current clinical practice. ECGs are obtained before PCI, immediately thereafter, and the morning after PCI. Creatine kinase, creatine kinase-MB fraction, and troponin I are measured on the evening after PCI and the following morning. Patients are discharged after PCI with 4 weeks of the study medication. Aspirin 325 mg/d is given from the time of recruitment and for the entire study duration. All-patients treated with stents also receive clopidogrel 75 mg/d for 30 days after PCI. Patients will return at 1 Month, 3 months and 6 months for clinical evaluation and drug accountability. Patients are assessed for ischemic symptoms and adverse events, whether or not they were related to the study medication or PCI procedure. Blood chemistry values assessed at baseline are measured again at PCI discharge and at follow-up visits. Patients are readmitted for follow-up catheterization and IVUS 5 to 7 months after PCI. […]
IVUS Examinations and Measurements—IVUS examinations are performed with 30-MHz, 3.2 F ultrasound catheters (Tardif et al., Canadian Antioxidant Restenosis Trial (CART-1) Investigators. Effects of AGI-1067 and probucol after percutaneous coronary interventions. Circulation. 2003; 107(4):552-8). IVUS studies are recorded before, PCI whenever possible and are always performed after PCI (after final balloon inflation) and at follow-up (before any subsequent intervention). […] The preintervention, post-PCI, and follow-up studies are analyzed side by side. […]

Data set [8] deals with hepatic cytochrome enzymes. As to the kind of experiment: Inhibition of hepatic cytochrome enzymes. The format is in vitro ADME.
For data set [9], the system named is freshly isolated adult rat cardiomyocytes. The conditions noted are these: previous finding of the inventors (refs 89, 93); cited from earlier work.
Data set [10] can be described thus: Tolerability and toxicity in animal and human studies. The format is in vivo.
For data set [11] the following is noted: cited from earlier work.
Setting [12] is: 750 mg once a day from 14 days before to 4 weeks after PCI.

Consider seven compounds from patent US20080175880A1, “Pyridoxal-5-Phosphate And Stent For The Treatment And Prevention Of Atherosclerosis And Restenosis” (MEIDCURE INTERNATIONAL INC., priority 2004, published 2008).

For `Nc1ncnc2c1ncn2[C@@H]1O[C@H](COP(=O)(O)OP(=O)(O)OP(=O)(O)O)[C@@H](O)[C@H]1O` [ATP, adenosine triphosphate], the “induction of cell apoptosis” value in [1] was “do not induce”; in [2], “induce”. In [3] (LPS primed THP-1 cells), the “induction of IL-1β secretion” value is “induces”.
On to `CN([C@@H](Cc1ccc(OS(=O)(=O)c2cccc3cnccc23)cc1)C(=O)N1CCN(c2ccccc2)CC1)S(=O)(=O)c1cccc2cnccc12` [KN-62], for which the “inhibition of IL-1β secretion” value in data set [3] is listed as “inhibits”.
On the same count and under the same terms, under `Nc1ncnc2c1ncn2[C@@H](C=O)O[C@@H](C=O)COP(=O)(O)OP(=O)(O)OP(=O)(O)O` [OxATP] stands “inhibits”.
With `Cc1ncc(COP(=O)(O)O)c(C=O)c1O` [P5P, Pyridoxal-5′-phosphate], the “inhibition of positive inotropic effects of ATP” value in [4] is given as “inhibits”. In [5] (8 weeks), the CRP levels entry is “lowered”, the homocysteine levels result is “lowered” and the lipid profile result is reported as “improved”. Also, in [5] (balloon injury), the incidence of restenosis result is “decreased incidence”. Moreover, in data set [5] (ultrasound), the endothelial function entry is given as “improved”. Besides, in [2] (P2X7 expressing HEK 293 cells, vs untreated cells), the “inhibition of ATP mediated cell apoptosis” value is “inhibits”. For the same compound, the “inhibition of IL-1β secretion” value in data set [3] is listed as “inhibits”. Also, the “inhibition of prostaglandin E1 and theophylline-induced platelet aggregation” value in [6] (in vitro (ref 123)) is given as “inhibit”. For the same compound, the “inhibition of platelet aggregation and 14C-5HT release” value in data set [6] (induced by ADP, thrombin, adrenaline, platelet activating factor, arachidonic acid, in vitro (ref 122)) was “inhibit”. Also, the “inhibition of thromboxane B2 generation” value in data set [6] (induced by all of these agents except arachidonic acid (ref 122)) is “inhibited”. In addition, in data set [7] (setting [12]), the CRP levels entry is “lowered”, the homocysteine levels entry was “lowered”, the “incidence of restenosis following PCI” value is “decreased incidence” and the lipid profile result is “improved”. Further, the endothelial function result in data set [7] (750 mg once a day, brachial artery ultrasound) is recorded as “improved”. In addition, the “inhibition of hepatic cytochrome enzymes” value in data set [8] is “does not inhibit”. For the same compound, in [9], the “inhibition of ATP induced calcium influx” value is listed as “inhibits”. Besides, in data set [10], the tolerability result is recorded as “easily tolerated” and the toxicity entry is “low toxicity”.
With `Cc1nc(N=Nc2ccc(S(=O)(=O)O)cc2S(=O)(=O)O)c(COP(=O)(O)O)c(C=O)c1O` [PPADS], the “inhibition of IL-1β secretion” value in data set [3] was “inhibits”.
For `Cc1ncc(CO)c(CO)c1O` [pyridoxine], in data set [11] (atherosclerotic patients (ref 16)), the “plasma antithrombin III (AT III) activity” value is “significantly increased”. The “AT III activity” value in data set [11] (patients with genetic homocysteinuria (ref 125)) is recorded as “increase”. Moreover, the bleeding time entry in data set [11] (patients, 100 mg twice daily for 15 days (ref 124)) is on record as “significantly prolonged”. Further, the “platelet aggregation induced with ADP or epinephrine” value in data set [11] (plasma from patients, 100 mg twice daily for 15 days (ref 124)) is “significantly inhibited”.
Regarding BzATP, the “induction of cell apoptosis” value in data set [1] is “do not induce”; in [2], “induce”.
